{"source": "the supplement of paper PMC3974653", "note": "Where a name gives a salt, the structure may show the parent alone.", "data": [{"test_system": "MTT (mouse pheochromocytoma)", "experiment": "IC50 of cell viability (ATP content)", "settings": "(24 or 48 h)", "procedure,_shortened": "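MTT mouse pheochromocytoma cells in white 1536-well plates were treated for 24 or 48 hrs with library compounds at 8 final concentrations from 0.5 nM to 46 µM. ATP content was measured with CellTiter-Glo luminescence, using positive-control wells as 100% and DMSO wells as 0%. IC50 came from a four-parameter logistic fit.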", "units": {"IC50 of cell viability": "µM"}, "values": [{"smiles": "CC(C)\\C1=C(/CN(C)[C@@H](C)CC2=CC=CC=C2)N(C)N(C3=CC=CC=C3)C1=O", "note": "[Famprofazone]", "IC50 of cell viability": "> 46"}, {"smiles": "OCCN(CCO)c1nc(N2CCCCC2)c2nc(N(CCO)CCO)nc(N3CCCCC3)c2n1", "note": "[DIPYRIDAMOLE]", "IC50 of cell viability": "> 46"}, {"smiles": "O=C1CCC(c2ccccc2)(C2CCN(Cc3ccccc3)CC2)C(=O)N1", "note": "(stereo not given) [Benzetimidum]", "IC50 of cell viability": "> 46"}, {"smiles": "CO[C@@]1(NC(=O)CSC(F)F)C(=O)N2C(C(=O)O)=C(CSc3nnnn3CCO)CO[C@@H]21", "note": "[Flomoxef]", "IC50 of cell viability": "> 46"}, {"smiles": "CC[C@@]1(c2ccc(N)cc2)CCC(=O)NC1=O", "note": "[Glutethimide, para-amino]", "IC50 of cell viability": "> 46"}, {"smiles": "COCCc1ccc(OCC(O)CNC(C)C)cc1", "note": "(racemic) [(±)-Metoprolol (+)-tartrate salt]", "IC50 of cell viability": "> 46"}, {"smiles": "Cl.Nc1c2c(nc3c1CCC3)CCCC2.O", "note": "[IPIDACRINE HYDROCHLORIDE HYDRATE]", "IC50 of cell viability": "> 46"}, {"smiles": "CC[C@]1(c2cccc(O)c2)CCCCN(C)C1", "note": "[Meptazinol hydrochloride]", "IC50 of cell viability": "> 46"}, {"smiles": "COC\\1=C\\C=C/2[C@H]3CC4=C5C(=C(OC)C=C4)OC1[C@@]25CCN3C", "note": "(stereo not given in full) [Thebaine]", "IC50 of cell viability": "> 46"}, {"smiles": "Cc1cc(O)cc2c1O[C@](C)(CCC[C@H](C)CCC[C@H](C)CCCC(C)C)CC2", "note": "[Delta-Vitamin E]", "IC50 of cell viability": "> 46"}, {"smiles": "Nc1c(CC(=O)[O-])cccc1C(=O)c1ccc(Br)cc1", "note": "[BROMFENAC SODIUM]", "IC50 of cell viability": "> 46"}, {"smiles": "NC(=O)NNc1ccccc1", "note": "[Fenicarbazida]", "IC50 of cell viability": "> 46"}, {"smiles": "CCN(CC)CCOC(=O)C(c1ccccc1)C1CCCCC1.Cl", "note": "(stereo not given) [DROFENINE HYDROCHLORIDE]", "IC50 of cell viability": "> 46"}, {"smiles": "Clc1ccc(CS[C@@H](Cn2ccnc2)c2ccc(Cl)cc2Cl)cc1", "note": "[Sulconazole nitrate]", "IC50 of cell viability": "> 46"}, {"smiles": "S=C=Nc1ccc(N=C=S)cc1", "note": "[Bitoscanate]", "IC50 of cell viability": "> 46"}, {"smiles": "CCCCc1nc(Cl)c(CO)n1Cc1ccc(-c2ccccc2-c2nnn[nH]2)cc1", "note": "[LOSARTAN]", "IC50 of cell viability": "> 46"}, {"smiles": "COC/1=N/N(CS[P](=S)(OC)OC)C(=O)S1", "note": "[Methidathion]", "IC50 of cell viability": "> 46"}, {"smiles": "CC\\1=C(/CCN2CCC(CC2)C3=NOC4=C3C=CC(=C4)F)C(=O)[N@@]\\5CCC[C@H](O)C5=N1", "note": "(racemic) [rac 9-Hydroxy Risperidone]", "IC50 of cell viability": "> 46"}, {"smiles": "CC[C@H](C)[C@H](N)\\C1=N\\[C@@H](CS1)C(=O)N[C@@H](CC(C)C)C(=O)N[C@@H](CCC(O)=O)C(=O)N[C@H]([C@@H](C)CC)C(=O)N[C@@H]2CCCCNC(=O)[C@@H](CC(N)=O)NC(=O)[C@@H](CC(O)=O)NC(=O)[C@@H](CC3=CN=C[NH]3)NC(=O)[C@@H](CC4=CC=CC=C4)NC(=O)[C@H](NC(=O)[C@@H](CCCN)NC2=O)[C@@H](C)CC", "note": "[Bacitracin]", "IC50 of cell viability": "> 46"}, {"smiles": "Cc1ccc([S+](=O)([O-])NC(=O)NC(C)Cc2ccccc2)cc1", "note": "(stereo not given) [TOSIFENUM]", "IC50 of cell viability": "> 46"}, {"smiles": "Oc1ccc2c3c1O[C@H]1[C@@H](O)CC[C@@]4(O)C(C2)N(CC2CCC2)CCC314", "note": "(stereo not given in full) [NALBUPHINE]", "IC50 of cell viability": "> 46"}, {"smiles": "[Na+].[Na+].CC1(C)[C@H](CC[C@@]2(C)[C@H]1CC[C@@]3(C)[C@H]2C(=O)\\C=C4\\[C@H]5C[C@@](C)(CC[C@]5(C)CC[C@]34C)C([O-])=O)OC(=O)CCC([O-])=O", "note": "[Carbenoxolone disodium salt]", "IC50 of cell viability": "> 46"}, {"smiles": "Cc1ccccc1/N=N/c1ccc(/N=N/c2c(O)ccc3ccccc23)c(C)c1", "note": "[SCARLET RED]", "IC50 of cell viability": "> 46"}, {"smiles": "N=C(N)NCC1COc2ccccc2O1", "note": "(stereo not given) [Guanoxano]", "IC50 of cell viability": "> 46"}, {"smiles": "C#C[C@]1(O)CC[C@H]2[C@@H]3CCc4cc(O)ccc4[C@H]3CC[C@@]21C", "note": "[ETHINYL ESTRADIOL]", "IC50 of cell viability": "> 46"}, {"smiles": "CC(N)C(=O)NCC(=O)NC1CSSCC(C(=O)O)NC(=O)C(CO)NC(=O)C(C(C)O)NC(=O)C(Cc2ccccc2)NC(=O)C(C(C)O)NC(=O)C(CCCCN)NC(=O)C(Cc2c[nH]c3ccccc23)NC(=O)C(Cc2ccccc2)NC(=O)C(Cc2ccccc2)NC(=O)C(CC(N)=O)NC(=O)C(CCCCN)NC1=O", "note": "(stereo not given) [SOMATOSTATIN]", "IC50 of cell viability": "> 46"}, {"smiles": "CC[C@H](C)[C@H]1O[C@]2(CC[C@@H]1C)C[C@@H]1C[C@@H](C/C=C(\\C)[C@H](O[C@@H]3C[C@H](OC)[C@H](O[C@@H]4C[C@H](OC)[C@@H](O)[C@H](C)O4)[C@H](C)O3)[C@@H](C)/C=C/C=C3\\CO[C@@H]4[C@H](O)C(C)=C[C@@H](C(=O)O1)[C@]34O)O2", "note": "[IVERMECTIN]", "IC50 of cell viability": "> 46"}, {"smiles": "Nc1nc(O)c2ncn(CCC(CO)CO)c2n1", "note": "[PENCICLOVIR SODIUM]", "IC50 of cell viability": "> 46"}, {"smiles": "COc1ccccc1N1CCN(CCCCNC(=O)c2ccc(-c3ccc(C(C)=O)cc3)cc2)CC1", "IC50 of cell viability": "> 46"}, {"smiles": "C=Cc1ccc(C=C)cc1.C=Cc1ccccc1.CC(C)N(Cc1ccccc1)C(C)C", "note": "[Diisopropylaminomethyl-polystyrene]", "IC50 of cell viability": "> 46"}, {"smiles": "Cc1ncc([N+](=O)[O-])n1CCO", "note": "[METRONIDAZOLE]", "IC50 of cell viability": "> 46"}, {"smiles": "CC(C)CC(NC(=O)CNC(=O)C(Cc1ccc(O)cc1)NC(=O)C(CO)NC(=O)C(Cc1c[nH]c2ccccc12)NC(=O)C(Cc1c[nH]cn1)NC(=O)C1CCC(=O)N1)C(=O)NC(CCCNC(=N)N)C(=O)N1CCCC1C(=O)NCC(N)=O", "note": "(stereo not given) [GONADORELIN]", "IC50 of cell viability": "> 46"}, {"smiles": "NCc1cccnc1", "note": "[Picolamina]", "IC50 of cell viability": "> 46"}, {"smiles": "COc1cc2nc(N3CCN(C(=O)[C@H]4CCCO4)CC3)nc(N)c2cc1OC", "note": "[Terazosin hydrochloride]", "IC50 of cell viability": "> 46"}, {"smiles": "C[N+](C)(C)CC(=O)[O-].Cl", "note": "[BETAINE HYDROCHLORIDE]", "IC50 of cell viability": "> 46"}, {"smiles": "C[C@@]12CCC[C@H]1[C@@H]1CC[C@H]3C[C@@H](O)CC[C@]3(C)[C@H]1CC2", "IC50 of cell viability": "> 46"}, {"smiles": "Nc1ccc([S+](=O)([O-])Nc2nccs2)cc1", "note": "[Sulfathiazole]", "IC50 of cell viability": "> 46"}, {"smiles": "CC[C@@H](CO)NC(=O)[C@H]/1CN(C)[C@@H]2CC3=C[NH]C4=C3C(=CC=C4)\\C2=C1", "note": "[METHYLERGOMETRINE]", "IC50 of cell viability": "> 46"}, {"smiles": "CN[S+](=O)([O-])Cc1ccc2[nH]cc(CCN(C)C)c2c1", "note": "[SUMATRIPTAN]", "IC50 of cell viability": "> 46"}, {"smiles": "COCCc1ccc(OC[C@H](O)CNC(C)C)cc1.COCCc1ccc(OC[C@H](O)CNC(C)C)cc1.O=C(O)[C@@H](O)[C@@H](O)C(=O)O", "note": "(racemic) [Metoprolol-(+,-) (+)-tartrate salt]", "IC50 of cell viability": "> 46"}, {"smiles": "O=C(O[C@H]1C[C@H]2CC[C@@H](C1)[N+]21CCCC1)C(O)(c1ccccc1)c1ccccc1", "note": "[TROSPIUM CHLORIDE]", "IC50 of cell viability": "> 46"}, {"smiles": "NCC1O[C@@H](OC2C(N)C[C@H](N)[C@@H](O[C@H]3OC(CO)C(O)C(N)C3O)C2O)C(N)C(O)C1O", "note": "(stereo not given in full) [KANAMYCIN B]", "IC50 of cell viability": "> 46"}, {"smiles": "CC(O)C(O)[C@H]1CNc2nc(N)nc(O)c2N1", "note": "(stereo not given in full) [Sapropterin]", "IC50 of cell viability": "> 46"}, {"smiles": "O=C(O)/C=C/C(=O)Nc1ccc([S+](=O)([O-])Nc2nccs2)cc1", "note": "[Maleilsulfatiazol]", "IC50 of cell viability": "> 46"}, {"smiles": "CC(CCc1ccc2c(c1)OCO2)NN", "note": "(stereo not given) [SAFRAZINE HYDROCHLORIDE]", "IC50 of cell viability": "> 46"}]}]}
